In patent US20250340848A1, “METHODS FOR CHEMICAL REPROGRAMMING AND PLURIPOTENT STEM CELLS” (Peking University, priority 2022, published 2025):

Legend:
hADSC = assay: Chemical reprogramming of hADSC per Example 6A, OCT4-positive hCiPSC clones; assay type: cell-based, human
Protocol: In short, hADSC or hASF are seeded at 1×10^4 cells/well in a 12-well plate, or at 0.5-0.6×10^4 cells/well in a 24-well plate, and cultured overnight. The next day, the medium is replaced with Stage I induction medium (Knockout DMEM supplemented with 2% B27 supplement, 1% KSR, 1% GlutaMAX, 1% NEAA, 1% penicillin-streptomycin, […] Vc2p, 5 mM LiCl, 1 mM NAM, 20 ng/mL BMP4, 5 μM CHIR999021, 10 μM 616452, 2 μM TTNPB, 0.5 μM SAG, 2 μM EPZ5676, 0.05 μM DZNep, 1 μM ruxolitinib, 0.5 μM VTP50469, 1 μM HY-10249A (CAS No. 842148-40-7), 0.2 μM JNKIN8, and 0.2 μM SETD2-IN-1), and cultured under hypoxic conditions (5% 02) until a monolayer of epithelial-like cells appears and reaches approximately 100% confluence. hADSC cells typically require 8-10 days, and hASFs typically require 9-16 days. […]
OCT4 immunofluorescent staining is performed on the obtained hCiPSC clones, with OCT4 positivity serving as an indicator of hCiPSC clones. The reprogramming efficiency of the method is calculated by dividing the number of OCT4-positive clones by the number of initial hADSC or hASFs plated. […]

[1] = system: cellular retinoic acid binding protein (CRABP); settings: cited from earlier work

Compound: CCc1c(C#N)c(SC(C(N)=O)c2ccccc2)nc(N2CCC(N)CC2)c1C#N (stereo not drawn) [GSK3685032]
- transformation into pluripotent stem cells vs control (hADSC; 6+4+8, added to Stage II induction medium (RA 5 μM, GSK3685032 0.02 μM), FIG. 29): significantly improve the transformation of LIN28A-positive monolayer epithelial-like cells into pluripotent stem cells

Compound: O=C(NNS(=O)(=O)c1ccccc1F)c1cc(F)cc(-c2ccccn2)c1 [WM1119]
- transformation efficiency (hADSC; 8+4+8 culture method, HATi 0.5 μM in stage I induction medium, FIG. 27A): about 2.4%

Compound: CC(C)(C)c1cc(C(=O)/C=C/c2ccc(C(=O)O)cc2)cc(C(C)(C)C)c1 [Ch 55, 4-[(1E)-3-[3,5-bis(1,1-Dimethylethyl)phenyl]-3-oxo-1-propenyl]benzoic acid]
- affinity for cellular retinoic acid binding protein (CRABP) [1]: low affinity
